In US20230323296A1, “STEM CELL-LIKE MEMORY T CELLS AND USES THEREOF” (GEORGETOWN UNIVERSITY, priority 2020, published 2023):

How the values were obtained:
[1] = test system: CD4+ T cells in the tumor microenvironment (TME); assay: In vivo TSCM generation in TC-1 tumor bearing mice (FACS of tumors); conditions: MEKi 10 mg/Kg oral gavage, 15 doses
Method: Mice were treated and tumors were isolated. The frequency of CD4^+ cells in variously treated mice (UT, untreated; Vax; MEKi, MEK1/2 inhibitor only; and Vax +MEKi, both E7 and MEK inhibitor) were determined. Error bars represent mean±SEM. (^NSnon-significant, *p≤0.05, **p≤0.01). For Vax treated mice, The CTL epitope from HPV16 E749-57 (RAHYNIVTF, 100 μg/mouse) was used mixed with PADRE, a small 13-mer non-natural pan HLA DR-binding sequence that is a potent T helper cell epitope (20 μg/mouse-Celtek Bioscience, Franklin, TN), and QuilA (adjuvant, 10 μg/mouse-Brenntag, Westbury, NY). Two doses of the vaccine were administered subcutaneously (s.c.) every seven days starting at an average tumor volume of 0.07-0.08 cm^3. Three days after the second vaccination, mice were sacrificed and expression of various markers was analyzed in cells from the tumors by flow cytometry
The frequency of CD62L^+CD44^− CD4^+ T cells in variously treated mice as described for FIG. 1A were determined. Error bars represent mean±SEM. (^NSnon-significant, *p≤0.05, **p≤0.01).
TC-1 tumor bearing mice were treated with an MEK inhibitor (MEKi) (10 mg/Kg), for a total of 15 doses, given everyday by oral gavage, starting when tumor reached an average size of 0.05 cm^3. […] The single-cell suspended tumors were labelled with appropriately conjugated fluorophore conjugated antibodies and analyzed by FACS.

[2] = test system: CD4 cells from the splenocytes of wild type (WT) mice; assay: In vitro assay of TSCM induction in activated CD4 cells (FACS); format: cell-based; conditions: TCONV cells activated with IL-2/anti-CD3/anti-CD28, 72 hours, MEKi 1 uM, vs cells activated without MEK1/2 inhibitor; FIG. 2A
Method: T conventional (TCONV) cells (from mouse spleen), defined as CD4^+FoxP3^− cells, were activated (Act) by IL-2 with anti-CD3/anti-CD28 in the presence (+) or absence (−) of MEK1/2 inhibitor for 72 hours, and the number of Sca1^+CD62L^+CD44^−CD4^+ T cells was determined by flow cytometry sorting (FACS).
CD4 cells from the splenocytes of wild type (WT) mice were prepared by magnetic purification using Biolegend cell sorting kits, as per the manufacturer's instructions. Purified cells were activated by plating 1×10^6/ml in cell activation medium that contained rIL-2 (100 IU/ml), anti-CD3 (5 ug/ml), anti-CD28 (2.5 ug/ml) and MEKi (1 uM). Appropriate arms (only cell activation and only IL-2 treatment) were also included for valid comparisons. After 72 hours of incubation at 37° C., at 5% CO2 in a humidified incubator, cells were picked up and processed for FACS analysis of TSCM induction.

N#CC(=C(N)Sc1ccc(N)cc1)c1ccccc1C(F)(F)F [MEK1/2 inhibitor]
numbers of CD4+ T cells in the tumor microenvironment (TME) ([1]; FIG. 1A): increases | induction of CD4+ T cells with a naive-like phenotype (CD62L+CD44-) in the TME ([1]; FIG. 1B): significantly enhanced | generation of Sca1+ TNAIVE CD4+ T cells [2]: significantly enhanced
